Laboratory results reported in PubChem BioAssay (NCI).
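Five compound concentrations were applied to cells in 96-well plates for 48 hours; endpoints were derived by simple linear interpolation of the resulting dose-response curve. Definition used: TGI = concentration required for complete inhibition of growth.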

Key:
Experiment in all cases: growth of human tumour cells (NCI), 48 h
[1] = system: 786-0 renal
[2] = system: RXF 393 renal
[3] = system: MOLT-4 leukemia
[4] = system: HL-60(TB) leukemia
[5] = system: A549 NSCLC
[6] = system: NCI-H226 lung
[7] = system: COLO 205 colon
[8] = system: OVCAR-4 ovarian
[9] = system: EKVX NSCLC
[10] = system: OVCAR-3 ovarian
[11] = system: UO-31 renal
[12] = system: TK-10 renal
[13] = system: U251 CNS
[14] = system: SK-OV-3 ovarian
[15] = system: OVCAR-5 ovarian
[16] = system: NCI/ADR-RES ovarian
[17] = system: HS 578T breast
[18] = system: M14 melanoma
[19] = system: MDA-MB-435
[20] = system: K-562 leukemia
[21] = system: SN12C renal
[22] = system: HOP-92 NSCLC
[23] = system: KM12 colon
[24] = system: RPMI-8226 leukemia
[25] = system: SK-MEL-5 melanoma
[26] = system: SK-MEL-28 melanoma
[27] = system: UACC-62 melanoma
[28] = system: SK-MEL-2 melanoma
[29] = system: BT-549 breast
[30] = system: A498 renal
[31] = system: OVCAR-8 ovarian
[32] = system: SR leukemia
[33] = system: UACC-257 melanoma
[34] = system: MCF7 breast
[35] = system: HOP-62 NSCLC
[36] = system: SNB-19 CNS
[37] = system: LOX IMVI melanoma
[38] = system: T-47D breast
[39] = system: SF-539 CNS
[40] = system: SW-620 colon
[41] = system: NCI-H23 lung
[42] = system: HCT-116 colon
[43] = system: MDA-MB-231 breast
[44] = system: DU-145 prostate
[45] = system: CAKI-1 renal
[46] = system: NCI-H522 lung
[47] = system: PC-3 prostate
[48] = system: HT29 colon
[49] = system: NCI-H460 lung
[50] = system: SNB-75 CNS
[51] = system: SF-268 CNS
[52] = system: HCT-15 colon
[53] = system: IGROV1 ovarian
[54] = system: SF-295 CNS
[55] = system: MDA-N
[56] = system: MALME-3M melanoma
[57] = system: ACHN renal
[58] = system: CCRF-CEM leukemia
[59] = system: HCC-2998 colon

CCC(C(=O)c1cccs1)C(O)(C(F)(F)F)C(F)(F)F (configuration not stated)
TGI [1]: > 100 µM
TGI [2]: > 100 µM
TGI [3]: > 100 µM
TGI [4]: > 100 µM
TGI [5]: > 100 µM
TGI [6]: > 100 µM
TGI [7]: > 100 µM
TGI [8]: > 100 µM
TGI [9]: > 100 µM
TGI [10]: > 100 µM
TGI [11]: > 100 µM
TGI [12]: > 100 µM
TGI [13]: > 100 µM
TGI [14]: > 100 µM
TGI [15]: > 100 µM
TGI [16]: > 100 µM
TGI [17]: > 100 µM
TGI [18]: > 100 µM
TGI [19]: > 100 µM
TGI [20]: > 100 µM
TGI [21]: > 100 µM
TGI [22]: > 100 µM
TGI [23]: > 100 µM
TGI [24]: > 100 µM
TGI [25]: > 100 µM
TGI [26]: > 100 µM
TGI [27]: > 100 µM
TGI [28]: > 100 µM
TGI [29]: > 100 µM
TGI [30]: > 100 µM
TGI [31]: > 100 µM
TGI [32]: > 100 µM
TGI [33]: > 100 µM
TGI [34]: > 100 µM
TGI [35]: > 100 µM
TGI [36]: > 100 µM
TGI [37]: > 100 µM
TGI [38]: > 100 µM
TGI [39]: > 100 µM
TGI [40]: > 100 µM
TGI [41]: > 100 µM
TGI [42]: > 100 µM
TGI [43]: > 100 µM
TGI [44]: > 100 µM
TGI [45]: > 100 µM
TGI [46]: > 100 µM
TGI [47]: > 100 µM
TGI [48]: > 100 µM
TGI [49]: > 100 µM
TGI [50]: > 100 µM
TGI [51]: > 100 µM
TGI [52]: > 100 µM
TGI [53]: > 100 µM
TGI [54]: > 100 µM
TGI [55]: > 100 µM
TGI [56]: > 100 µM
TGI [57]: > 100 µM

Cc1nc2c(=O)n(C)c(=O)nc-2n(CCO)c1C
TGI [1]: > 100 µM
TGI [2]: > 100 µM
TGI [3]: > 100 µM
TGI [5]: > 100 µM
TGI [6]: > 100 µM
TGI [7]: > 100 µM
TGI [8]: > 100 µM
TGI [9]: > 100 µM
TGI [58]: > 100 µM
TGI [10]: > 100 µM
TGI [11]: > 100 µM
TGI [12]: > 100 µM
TGI [13]: > 100 µM
TGI [14]: > 100 µM
TGI [15]: > 100 µM
TGI [16]: > 100 µM
TGI [17]: > 100 µM
TGI [18]: > 100 µM
TGI [19]: > 100 µM
TGI [20]: > 100 µM
TGI [21]: > 100 µM
TGI [22]: > 100 µM
TGI [23]: > 100 µM
TGI [24]: > 100 µM
TGI [25]: > 100 µM
TGI [26]: > 100 µM
TGI [27]: > 100 µM
TGI [28]: > 100 µM
TGI [29]: > 100 µM
TGI [30]: > 100 µM
TGI [59]: > 100 µM
TGI [31]: > 100 µM
TGI [32]: > 100 µM
TGI [33]: > 100 µM
TGI [34]: > 100 µM
TGI [35]: > 100 µM
TGI [36]: > 100 µM
TGI [37]: > 100 µM
TGI [38]: > 100 µM
TGI [39]: > 100 µM
TGI [40]: > 100 µM
TGI [41]: > 100 µM
TGI [42]: > 100 µM
TGI [43]: > 100 µM
TGI [44]: > 100 µM
TGI [45]: > 100 µM
TGI [46]: > 100 µM
TGI [47]: > 100 µM
TGI [48]: > 100 µM
TGI [49]: > 100 µM
TGI [50]: > 100 µM
TGI [51]: > 100 µM
TGI [52]: > 100 µM
TGI [53]: > 100 µM
TGI [54]: > 100 µM
TGI [55]: > 100 µM
TGI [56]: > 100 µM
TGI [57]: > 100 µM

O=C1N[C@H]2C(=O)c3c(Cl)sc(Cl)c3[C@H]2O1
TGI [1]: 31.3 µM
TGI [2]: 9.31 µM
TGI [3]: 8.22 µM
TGI [4]: 4.91 µM
TGI [5]: 40 µM
TGI [6]: > 100 µM
TGI [7]: 21.3 µM
TGI [9]: 3.85 µM
TGI [58]: 10.9 µM
TGI [10]: 3.54 µM
TGI [11]: 3.24 µM
TGI [12]: 70.8 µM
TGI [13]: 11.6 µM
TGI [14]: 28.9 µM
TGI [15]: 37.7 µM
TGI [16]: > 71.5 µM
TGI [17]: 67.1 µM
TGI [18]: 19.6 µM
TGI [19]: 17.8 µM
TGI [20]: 5.09 µM
TGI [21]: 30.3 µM
TGI [22]: 26.4 µM
TGI [23]: 44.2 µM
TGI [24]: 59.1 µM
TGI [25]: 35 µM
TGI [26]: 23.2 µM
TGI [27]: 28.2 µM
TGI [28]: 43.4 µM
TGI [29]: 54.5 µM
TGI [30]: 60.5 µM
TGI [59]: 3.6 µM
TGI [31]: 7.74 µM
TGI [32]: 6.71 µM
TGI [33]: 23 µM
TGI [34]: 52.5 µM
TGI [35]: 34.5 µM
TGI [36]: 29.9 µM
TGI [37]: 6.97 µM
TGI [38]: 29.2 µM
TGI [39]: 20.6 µM
TGI [40]: 5.4 µM
TGI [41]: 22.5 µM
TGI [42]: 8.73 µM
TGI [43]: 32 µM
TGI [44]: 23.7 µM
TGI [45]: 9.7 µM
TGI [46]: 8.83 µM
TGI [47]: 31 µM
TGI [48]: 6.23 µM
TGI [49]: 39.4 µM
TGI [50]: 30.4 µM
TGI [51]: 22.4 µM
TGI [52]: 16.6 µM
TGI [53]: 10.6 µM
TGI [54]: 32.1 µM
TGI [55]: 14.7 µM
TGI [56]: 33 µM
TGI [57]: 21 µM

COc1cccc(CCn2c(N)c(C(=O)O)c3ccc([N+](=O)[O-])cc3c2=O)c1
TGI [1]: > 100 µM
TGI [2]: > 100 µM
TGI [3]: > 100 µM
TGI [4]: > 100 µM
TGI [5]: > 100 µM
TGI [6]: > 100 µM
TGI [7]: 45.9 µM
TGI [8]: > 100 µM
TGI [9]: > 100 µM
TGI [58]: > 100 µM
TGI [10]: > 100 µM
TGI [11]: > 100 µM
TGI [13]: > 100 µM
TGI [14]: > 100 µM
TGI [15]: > 100 µM
TGI [16]: 89.7 µM
TGI [17]: > 100 µM
TGI [18]: > 100 µM
TGI [19]: > 100 µM
TGI [20]: > 100 µM
TGI [21]: > 100 µM
TGI [24]: > 100 µM
TGI [25]: > 100 µM
TGI [26]: > 100 µM
TGI [27]: > 100 µM
TGI [28]: 68.3 µM
TGI [29]: 87.4 µM
TGI [30]: > 100 µM
TGI [59]: > 100 µM
TGI [31]: > 100 µM
TGI [32]: > 100 µM
TGI [34]: 57.7 µM
TGI [35]: > 100 µM
TGI [36]: > 100 µM
TGI [37]: > 100 µM
TGI [38]: > 100 µM
TGI [40]: > 100 µM
TGI [41]: 64.7 µM
TGI [42]: > 100 µM
TGI [43]: 72.8 µM
TGI [44]: > 100 µM
TGI [45]: > 100 µM
TGI [46]: 75.8 µM
TGI [47]: > 100 µM
TGI [48]: > 100 µM
TGI [49]: > 100 µM
TGI [50]: 90.3 µM
TGI [51]: > 100 µM
TGI [52]: > 100 µM
TGI [53]: > 100 µM
TGI [54]: > 100 µM
TGI [55]: > 100 µM
TGI [56]: > 100 µM
TGI [57]: > 100 µM
